In BindingDB's records for doi:10.1021/jm101011y (University of Basel, 2010):

Test: Antagonist activity at Escherichia coli UT189 FimH in guinea pig red blood cells assessed as disaggregation of bacteria after 600 secs by aggregometry assay

| SMILES | IC50 |
| --- | --- |
| COC(=O)c1ccc(-c2ccc(Cl)c(O[C@H]3O[C@H](CO)[C@@H](O)[C@H](O)[C@@H]3O)c2)cc1 | 31 µM |
| COC(=O)c1ccc(-c2cc(Cl)c(O[C@H]3O[C@H](CO)[C@@H](O)[C@H](O)[C@@H]3O)c(Cl)c2)cc1 | 14 µM |
| O=C(O)c1ccc(-c2ccc(O[C@H]3O[C@H](CO)[C@@H](O)[C@H](O)[C@@H]3O)cc2)cc1 | 45 µM |
| COC(=O)c1ccc(-c2ccc(O[C@H]3O[C@H](CO)[C@@H](O)[C@H](O)[C@@H]3O)cc2Cl)cc1 | 41 µM |
| O=C(O)c1ccc(-c2ccc(O[C@H]3O[C@H](CO)[C@@H](O)[C@H](O)[C@@H]3O)cc2Cl)cc1 | 17 µM |
| O=C(O)c1ccc(-c2cccc(O[C@H]3O[C@H](CO)[C@@H](O)[C@H](O)[C@@H]3O)c2)cc1 | 45 µM |
| COC(=O)c1ccc(-c2ccc(O[C@H]3O[C@H](CO)[C@@H](O)[C@H](O)[C@@H]3O)c(Cl)c2)cc1 | 9 µM |
| O=C(O)c1ccc(-c2ccc(O[C@H]3O[C@H](CO)[C@@H](O)[C@H](O)[C@@H]3O)c(Cl)c2)cc1 | 10 µM |
